A word on the Ki: it is the dissociation constant of the complex between target and ligand, obtained from inhibition or displacement. A word on the IC50: it is the point on the concentration scale where inhibition reaches its midpoint.

The record followed here is ChEMBL document CHEMBL3638431, “2-PYRIDYLOXY-4-NITRILE OREXIN RECEPTOR ANTAGONISTS” (2013).

The target of one experiment is T1, Orexin receptor type 2 (Homo sapiens, UniProt O43614).
T1 sequence (O43614 whole entry): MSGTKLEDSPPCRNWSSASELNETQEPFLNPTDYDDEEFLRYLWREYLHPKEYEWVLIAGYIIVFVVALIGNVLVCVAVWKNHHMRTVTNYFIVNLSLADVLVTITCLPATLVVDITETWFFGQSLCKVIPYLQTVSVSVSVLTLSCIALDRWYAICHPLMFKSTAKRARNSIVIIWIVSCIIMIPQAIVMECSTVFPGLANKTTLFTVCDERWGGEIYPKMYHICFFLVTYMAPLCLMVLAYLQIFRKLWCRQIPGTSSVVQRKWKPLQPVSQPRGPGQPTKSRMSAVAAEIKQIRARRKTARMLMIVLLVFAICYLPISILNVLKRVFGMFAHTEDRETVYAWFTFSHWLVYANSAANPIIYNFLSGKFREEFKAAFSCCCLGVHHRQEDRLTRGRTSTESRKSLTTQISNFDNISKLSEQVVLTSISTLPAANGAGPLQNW
Put plainly: (§1) Radioligand Binding Assay: The inhibition constant (Ki) is determined using a radioligand binding assay (described in Bergman et. al. Bioorg. Med. Chem. Lett. 2008, 18, 1425-1430).

The target of experiment [1] is T2, Orexin/Hypocretin receptor type 1 (Homo sapiens, UniProt O43613).
T2 sequence (O43613 whole entry): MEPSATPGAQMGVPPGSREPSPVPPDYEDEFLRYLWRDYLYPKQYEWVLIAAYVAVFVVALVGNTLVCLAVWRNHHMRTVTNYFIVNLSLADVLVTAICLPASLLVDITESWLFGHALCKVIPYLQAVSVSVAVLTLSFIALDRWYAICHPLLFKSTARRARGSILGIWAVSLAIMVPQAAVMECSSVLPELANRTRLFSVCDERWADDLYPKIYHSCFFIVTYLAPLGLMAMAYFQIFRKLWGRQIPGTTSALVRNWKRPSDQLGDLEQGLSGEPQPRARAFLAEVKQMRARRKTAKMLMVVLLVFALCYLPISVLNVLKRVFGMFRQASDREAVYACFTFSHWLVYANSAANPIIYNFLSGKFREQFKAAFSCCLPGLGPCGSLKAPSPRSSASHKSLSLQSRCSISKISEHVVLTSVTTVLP
The description is as §1.

The target of experiment [2] is T3, Orexin/Hypocretin receptor type 1 (Rattus norvegicus, UniProt P56718).
T3 sequence (P56718 whole entry): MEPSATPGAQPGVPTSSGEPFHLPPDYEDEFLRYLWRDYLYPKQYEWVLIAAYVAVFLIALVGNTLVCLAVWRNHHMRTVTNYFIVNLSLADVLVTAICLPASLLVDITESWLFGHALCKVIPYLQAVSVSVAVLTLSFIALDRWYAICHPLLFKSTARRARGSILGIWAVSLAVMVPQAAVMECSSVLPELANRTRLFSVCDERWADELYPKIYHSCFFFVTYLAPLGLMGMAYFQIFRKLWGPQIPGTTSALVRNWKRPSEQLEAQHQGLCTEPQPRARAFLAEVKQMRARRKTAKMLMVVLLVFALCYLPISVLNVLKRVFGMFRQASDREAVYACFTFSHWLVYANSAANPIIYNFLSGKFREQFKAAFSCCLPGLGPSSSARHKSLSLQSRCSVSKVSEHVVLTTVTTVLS
Briefly: FLIPR Ca2+ Flux Assay: Chinese hamster ovary (CHO) cells expressing the rat orexin-1 receptor or the human orexin-2 receptor, are grown in Iscove's modified DMEM containing 2 mM L-glutamine, […], 1% hypoxanthine-thymidine supplement, 100 U/ml penicillin, 100 ug/ml streptomycin and 10% heat-inactivated fetal calf serum (FCS). The cells are seeded at 20,000 cells/well into Becton-Dickinson black 384-well clear bottom sterile plates coated with poly-D-lysine. All reagents were from GIBCO-Invitrogen Corp. The seeded plates are incubated overnight at 37° C. and 5% CO2. Ala-6,12 human orexin-A as the agonist is prepared as a 1 mM stock solution in 1% bovine serum albumin (BSA) and diluted in assay buffer (HBSS containing 20 mM HEPES, 0.1% BSA and 2.5 mM probenecid, pH7.4) for use in the assay at a final concentration of 70 pM. Test compounds are prepared as 10 mM stock solution in DMSO, then diluted in 384-well plates, first in DMSO, then assay buffer. On the day of the assay, cells are washed 3 times with 100 ul assay buffer and then incubated for 60 min (37° C., 5% CO2) in 60 ul assay buffer containing 1 uM Fluo-4AM ester, 0.02% pluronic acid, and 1% BSA. The dye loading solution is then aspirated and cells are washed 3 times with 100 ul assay buffer. 30 ul of that same buffer is left in each well. Within the Fluorescent Imaging Plate Reader (FLIPR, Molecular Devices), test compounds are added to the plate in a volume of 25 ul, incubated for 5 min and finally 25 ul of agonist is added. Fluorescence is measured for each well at 1 second intervals for 5 minutes and the height of each fluorescence peak is compared to the height of the fluorescence peak induced by 70 pM Ala-6,12 orexin-A with buffer in place of antagonist. Type of experiment: functional. (In general: Calcium flux is commonly read through the fluorescence of an indicator in the cells.)

Turning to `C[C@@H]1CC[C@@H](Oc2cc(C#N)ccn2)CN1C(=O)c1ccc(C#N)cc1-n1nccn1`, the inhibition constant (Ki) on Orexin receptor type 2 was 1360 nM; in experiment [1], 34500 nM.

In the case of `C[C@@H]1CC[C@@H](Oc2cc(C#N)ccn2)CN1C(=O)c1ccccc1-n1nccn1`, the 50% inhibitory concentration (IC50) in experiment [2] came to 3650 nM. In addition, the figures for the Ki (at Orexin receptor type 2; in experiment [1]) were 1.6 nM and 813 nM, respectively.

Regarding `C[C@@H]1CC[C@@H](Oc2cc(C#N)ccn2)CN1C(=O)c1ccccc1-c1ncccn1`, in experiment [2], the IC50 was found to be 4870 nM. The Ki at Orexin receptor type 2 was 1.3 nM; in experiment [1], 761 nM.

As for `Cc1nc(-c2ccccc2C(=O)N2C[C@H](Oc3cc(C#N)ccn3)CC[C@H]2C)no1`, in experiment [2], the IC50 was above 10000 nM. For the same compound, the inhibition constant (Ki) at Orexin receptor type 2 worked out at 4.5 nM; in experiment [1] it was 1660 nM.
